Assay results reported in PubChem BioAssay (NCI).
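The compound was tested at five concentrations on cells cultured in 96-well plates, with a 48-hour exposure period. GI50 is the concentration that inhibits growth by half. Definition used: TGI = concentration required for complete inhibition of growth.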

Legend:
Assay in all cases: DTP human tumour cell line panel, 48 h
[1] = tested on: NCI-H522 lung
[2] = tested on: U251 CNS
[3] = tested on: K-562 leukemia
[4] = tested on: PC-3 prostate
[5] = tested on: HCC-2998 colon
[6] = tested on: MOLT-4 leukemia
[7] = tested on: HL-60(TB) leukemia
[8] = tested on: NCI/ADR-RES ovarian
[9] = tested on: DU-145 prostate
[10] = tested on: UO-31 renal
[11] = tested on: TK-10 renal
[12] = tested on: RPMI-8226 leukemia
[13] = tested on: RXF 393 renal
[14] = tested on: SF-268 CNS
[15] = tested on: MALME-3M melanoma
[16] = tested on: OVCAR-8 ovarian
[17] = tested on: T-47D breast
[18] = tested on: UACC-257 melanoma
[19] = tested on: SK-MEL-5 melanoma
[20] = tested on: A549 NSCLC
[21] = tested on: HOP-62 NSCLC
[22] = tested on: OVCAR-4 ovarian
[23] = tested on: SR leukemia
[24] = tested on: CCRF-CEM leukemia
[25] = tested on: HOP-92 NSCLC
[26] = tested on: IGROV1 ovarian
[27] = tested on: KM12 colon
[28] = tested on: NCI-H226 lung
[29] = tested on: SK-OV-3 ovarian
[30] = tested on: LOX IMVI melanoma
[31] = tested on: MCF7 breast
[32] = tested on: NCI-H23 lung
[33] = tested on: COLO 205 colon
[34] = tested on: SK-MEL-28 melanoma
[35] = tested on: HT29 colon
[36] = tested on: SK-MEL-2 melanoma
[37] = tested on: SNB-75 CNS
[38] = tested on: OVCAR-3 ovarian

Q: With `CCCCN(CCCC)Cc1cc(Nc2ccnc3cc(Cl)ccc23)ccc1O` as the compound, how does the GI50 [1] read?
A: The GI50 was 3.75 µM.

Q: And the TGI [1]?
A: Its TGI is greater than 100 µM.

Q: What about the GI50 [2] of the same compound?
A: The GI50 was 7.82 µM.

Q: What about the TGI [2] of the same compound?
A: The TGI was greater than 100 µM.

Q: What about the GI50 [3] of the same compound?
A: The GI50 was 2.3 µM.

Q: And the TGI [3]?
A: Its TGI is greater than 100 µM.

Q: What about the GI50 [4] of the same compound?
A: Its GI50 is 5.73 µM.

Q: And the TGI [4]?
A: Its TGI is greater than 100 µM.

Q: What about the GI50 [5] of the same compound?
A: The GI50 was 42.4 µM.

Q: And the TGI [5]?
A: Its TGI is greater than 100 µM.

Q: And the GI50 [6]?
A: The GI50 was 37.5 µM.

Q: And the TGI [6]?
A: Its TGI is greater than 100 µM.

Q: What about the GI50 [7] of the same compound?
A: Its GI50 is 5.88 µM.

Q: What about the TGI [7] of the same compound?
A: The TGI was greater than 100 µM.

Q: And the GI50 [8]?
A: The GI50 was 4.38 µM.

Q: What about the TGI [8] of the same compound?
A: The TGI was greater than 100 µM.

Q: What about the GI50 [9] of the same compound?
A: The GI50 was greater than 100 µM.

Q: What about the TGI [9] of the same compound?
A: Its TGI is greater than 100 µM.

Q: What about the GI50 [10] of the same compound?
A: The GI50 was 1.38 µM.

Q: What about the TGI [10] of the same compound?
A: The TGI was greater than 100 µM.

Q: What about the GI50 [11] of the same compound?
A: Its GI50 is 2.62 µM.

Q: What about the TGI [11] of the same compound?
A: The TGI was 26.4 µM.

Q: And the GI50 [12]?
A: Its GI50 is 6.6 µM.

Q: What about the TGI [12] of the same compound?
A: Its TGI is greater than 100 µM.

Q: What about the GI50 [13] of the same compound?
A: The GI50 was 20.9 µM.

Q: And the TGI [13]?
A: Its TGI is greater than 100 µM.

Q: And the GI50 [14]?
A: The GI50 was greater than 100 µM.

Q: And the TGI [14]?
A: The TGI was greater than 100 µM.

Q: What about the GI50 [15] of the same compound?
A: The GI50 was 24.5 µM.

Q: And the TGI [15]?
A: Its TGI is greater than 100 µM.

Q: And the GI50 [16]?
A: Its GI50 is 9.03 µM.

Q: And the TGI [16]?
A: The TGI was greater than 100 µM.

Q: What about the GI50 [17] of the same compound?
A: The GI50 was 35.9 µM.

Q: And the TGI [17]?
A: The TGI was greater than 100 µM.

Q: And the GI50 [18]?
A: Its GI50 is 40.1 µM.

Q: What about the TGI [18] of the same compound?
A: Its TGI is greater than 100 µM.

Q: What about the GI50 [19] of the same compound?
A: Its GI50 is 8.29 µM.

Q: And the TGI [19]?
A: Its TGI is greater than 100 µM.

Q: And the GI50 [20]?
A: The GI50 was 19.8 µM.

Q: And the TGI [20]?
A: The TGI was greater than 100 µM.

Q: And the GI50 [21]?
A: The GI50 was 2.54 µM.

Q: What about the TGI [21] of the same compound?
A: The TGI was greater than 100 µM.

Q: And the GI50 [22]?
A: Its GI50 is greater than 100 µM.

Q: What about the TGI [22] of the same compound?
A: Its TGI is greater than 100 µM.

Q: And the GI50 [23]?
A: Its GI50 is 6.59 µM.

Q: What about the TGI [23] of the same compound?
A: The TGI was greater than 100 µM.

Q: And the GI50 [24]?
A: Its GI50 is 17.5 µM.

Q: And the TGI [24]?
A: Its TGI is greater than 100 µM.

Q: What about the GI50 [25] of the same compound?
A: Its GI50 is 0.982 µM.

Q: And the TGI [25]?
A: The TGI was 22.9 µM.

Q: What about the GI50 [26] of the same compound?
A: Its GI50 is 7.36 µM.

Q: And the TGI [26]?
A: Its TGI is greater than 100 µM.

Q: What about the GI50 [27] of the same compound?
A: Its GI50 is greater than 100 µM.

Q: What about the TGI [27] of the same compound?
A: The TGI was greater than 100 µM.

Q: What about the GI50 [28] of the same compound?
A: Its GI50 is 11.1 µM.

Q: And the TGI [28]?
A: The TGI was greater than 100 µM.

Q: What about the GI50 [29] of the same compound?
A: The GI50 was 8.83 µM.

Q: And the TGI [29]?
A: The TGI was greater than 100 µM.

Q: What about the GI50 [30] of the same compound?
A: Its GI50 is 2.81 µM.

Q: And the TGI [30]?
A: Its TGI is greater than 100 µM.

Q: And the GI50 [31]?
A: Its GI50 is 8.91 µM.

Q: What about the TGI [31] of the same compound?
A: The TGI was greater than 100 µM.

Q: What about the GI50 [32] of the same compound?
A: Its GI50 is 8.23 µM.

Q: And the TGI [32]?
A: The TGI was greater than 100 µM.

Q: And the GI50 [33]?
A: The GI50 was 6.68 µM.

Q: What about the TGI [33] of the same compound?
A: Its TGI is greater than 100 µM.

Q: What about the GI50 [34] of the same compound?
A: Its GI50 is 43.1 µM.

Q: And the TGI [34]?
A: Its TGI is greater than 100 µM.

Q: What about the GI50 [35] of the same compound?
A: The GI50 was 0.491 µM.

Q: What about the TGI [35] of the same compound?
A: Its TGI is greater than 100 µM.

Q: And the GI50 [36]?
A: Its GI50 is 45.1 µM.

Q: What about the TGI [36] of the same compound?
A: Its TGI is greater than 100 µM.

Q: And the GI50 [37]?
A: The GI50 was 2.83 µM.

Q: And the TGI [37]?
A: Its TGI is 13.6 µM.

Q: And the GI50 [38]?
A: Its GI50 is 74.7 µM.

Q: And the TGI [38]?
A: The TGI was greater than 100 µM.
